Legend:
Androgen receptor [1] = target: T1, Androgen receptor (Homo sapiens, UniProt P10275); test: Agonist activity at AR in human LNAR cells assessed as increase in PSA gene expression at 100 nM incubated for 24 hrs by RT-qPCR method; assay type: cell-based; details: 0.1 µM
T1 sequence (P10275 whole entry): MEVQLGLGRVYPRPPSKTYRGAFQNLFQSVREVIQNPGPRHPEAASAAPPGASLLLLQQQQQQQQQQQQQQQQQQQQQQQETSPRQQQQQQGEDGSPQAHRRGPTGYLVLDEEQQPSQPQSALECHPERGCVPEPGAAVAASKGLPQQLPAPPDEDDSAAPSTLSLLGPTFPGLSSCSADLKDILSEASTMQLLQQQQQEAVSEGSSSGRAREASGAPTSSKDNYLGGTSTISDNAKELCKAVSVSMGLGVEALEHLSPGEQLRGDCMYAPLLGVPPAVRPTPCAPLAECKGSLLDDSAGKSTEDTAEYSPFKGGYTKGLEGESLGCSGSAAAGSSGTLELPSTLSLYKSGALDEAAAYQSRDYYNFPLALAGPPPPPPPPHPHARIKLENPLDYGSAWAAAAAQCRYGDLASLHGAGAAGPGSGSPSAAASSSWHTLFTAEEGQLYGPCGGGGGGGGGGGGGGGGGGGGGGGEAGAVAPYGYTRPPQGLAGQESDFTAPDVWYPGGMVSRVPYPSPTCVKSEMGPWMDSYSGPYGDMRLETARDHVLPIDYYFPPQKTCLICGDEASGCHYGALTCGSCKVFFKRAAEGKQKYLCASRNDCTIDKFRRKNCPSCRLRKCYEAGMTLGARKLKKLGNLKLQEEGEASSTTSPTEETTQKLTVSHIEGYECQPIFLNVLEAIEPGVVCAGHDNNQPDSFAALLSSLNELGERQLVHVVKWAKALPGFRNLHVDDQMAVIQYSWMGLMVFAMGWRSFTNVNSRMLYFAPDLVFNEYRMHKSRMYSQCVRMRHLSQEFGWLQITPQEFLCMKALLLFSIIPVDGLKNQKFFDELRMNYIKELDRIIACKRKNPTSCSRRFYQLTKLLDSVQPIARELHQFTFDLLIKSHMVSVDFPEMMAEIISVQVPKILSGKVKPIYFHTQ

Glucocorticoid receptor = target: T2, Glucocorticoid receptor (Sus scrofa, UniProt Q9N1U3); test: Antagonist activity at GR in mini pig PBMC assessed as reduction in dexamethasone-induced FKBP5 gene expression incubated for 24 hrs by RT-qPCR method; assay type: cell-based
T2 sequence (Q9N1U3 whole entry): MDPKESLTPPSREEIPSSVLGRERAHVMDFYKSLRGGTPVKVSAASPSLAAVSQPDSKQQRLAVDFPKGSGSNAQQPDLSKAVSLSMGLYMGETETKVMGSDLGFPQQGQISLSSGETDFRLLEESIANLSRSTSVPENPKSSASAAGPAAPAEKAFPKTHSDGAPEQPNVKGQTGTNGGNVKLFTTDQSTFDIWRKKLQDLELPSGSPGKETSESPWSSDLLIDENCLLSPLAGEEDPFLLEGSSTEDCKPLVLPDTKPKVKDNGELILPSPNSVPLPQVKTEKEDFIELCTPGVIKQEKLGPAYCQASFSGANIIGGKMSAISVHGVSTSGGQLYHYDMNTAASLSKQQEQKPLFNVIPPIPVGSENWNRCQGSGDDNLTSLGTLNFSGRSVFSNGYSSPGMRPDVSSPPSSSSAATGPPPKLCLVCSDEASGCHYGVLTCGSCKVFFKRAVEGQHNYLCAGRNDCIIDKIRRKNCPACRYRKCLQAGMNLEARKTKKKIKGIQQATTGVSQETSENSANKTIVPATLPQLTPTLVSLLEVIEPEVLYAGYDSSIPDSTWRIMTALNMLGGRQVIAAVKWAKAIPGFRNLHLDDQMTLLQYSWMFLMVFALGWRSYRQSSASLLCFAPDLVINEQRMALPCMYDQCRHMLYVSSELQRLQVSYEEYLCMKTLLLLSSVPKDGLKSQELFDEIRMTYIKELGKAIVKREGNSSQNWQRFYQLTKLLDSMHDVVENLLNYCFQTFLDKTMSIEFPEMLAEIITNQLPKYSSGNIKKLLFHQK

[2] = Volume of distribution at steady state in mouse at 0.5 mg/kg, iv; assay type: ADME, organism-based; details: in vivo, read-out: Vdss
Androgen receptor [3] = target: T1, Androgen receptor; test: Antagonist activity at AR (unknown origin) expressed in human LNCaP cells assessed as reduction in R1881-induced response incubated for 20 hrs by luciferase reporter gene assay; assay type: cell-based
[4] = Half life in rat at 0.5 mg/kg, iv; assay type: ADME, organism-based; details: in vivo
[5] = Volume of distribution at steady state in mini pig at 0.5 mg/kg, iv; assay type: ADME, organism-based, Sus scrofa; details: in vivo, read-out: Vdss
[6] = target: T3, glucocorticoid receptor (GR) (Homo sapiens, UniProt P04150); test: Agonist activity at human GR expressed in CHO-K1 cells incubated for 20 hrs by luciferase reporter gene assay relative to dexamethasone; assay type: cell-based; details: CHO-K1 cells expressing human GR
T3 sequence (P04150 whole entry): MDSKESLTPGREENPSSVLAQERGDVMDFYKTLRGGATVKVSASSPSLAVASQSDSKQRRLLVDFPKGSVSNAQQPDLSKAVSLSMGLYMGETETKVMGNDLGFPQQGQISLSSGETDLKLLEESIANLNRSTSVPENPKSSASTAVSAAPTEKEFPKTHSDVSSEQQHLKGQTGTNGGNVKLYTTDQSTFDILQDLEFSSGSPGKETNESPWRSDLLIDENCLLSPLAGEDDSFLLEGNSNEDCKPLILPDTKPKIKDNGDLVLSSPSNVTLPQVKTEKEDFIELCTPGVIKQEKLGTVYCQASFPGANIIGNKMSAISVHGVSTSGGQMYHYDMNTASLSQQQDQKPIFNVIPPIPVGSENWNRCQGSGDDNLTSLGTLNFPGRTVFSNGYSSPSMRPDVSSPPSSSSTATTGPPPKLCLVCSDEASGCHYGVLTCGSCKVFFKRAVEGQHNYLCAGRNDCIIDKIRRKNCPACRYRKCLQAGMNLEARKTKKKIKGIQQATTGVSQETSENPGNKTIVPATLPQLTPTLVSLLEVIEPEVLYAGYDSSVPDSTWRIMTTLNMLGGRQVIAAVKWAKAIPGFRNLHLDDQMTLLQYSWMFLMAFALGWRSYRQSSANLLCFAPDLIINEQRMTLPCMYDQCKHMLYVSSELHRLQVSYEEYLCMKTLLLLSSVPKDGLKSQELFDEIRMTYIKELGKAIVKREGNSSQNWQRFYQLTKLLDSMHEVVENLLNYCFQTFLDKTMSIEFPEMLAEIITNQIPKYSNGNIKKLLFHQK

CC(C)N(C)c1ccc([C@H]2C[C@@]3(C)[C@@H](CC[C@@]3(O)C#CC(C)(C)C)[C@@H]3CCC4=CC(=O)CC[C@@H]4[C@H]32)cc1
Activity (Androgen receptor [1]): Not Active | IC50 (Glucocorticoid receptor): 39.3 nM | Vd [2]: 5.01 L/kg | IC50 (Androgen receptor [3]): 484 nM | half-life [4]: 4.4 h | Vd [5]: 7.8 L/kg | Emax at 20 h [6]: 2.3%
